According to patent US20240018136A1, “CDK Inhibitors And Their Use As Pharmaceuticals” (Prelude Therapeutics, Incorporated, priority 2022, published 2024):

Assays:
[1] = biological target: CDK2/Cyclin E2 (Homo sapiens, UniProt P24941); test: CDK2/CyclinE2 enzymatic activity assay (TR-FRET); format: biochemical; conditions: ATP 1 mM final, read-out: CDK2_E1 IC50
Description: CDK2/CyclinE2 Enzymatic Activity Assay
(§1) The inhibitory activity of compounds was evaluated in vitro using TR-FRET assay with white 384-well low volume microplate (Greiner Bio-One). CDK2/Cyclin E2 catalyzed phosphorylation of peptide in the presence and absence of compounds was measured and used in IC50 determination. Recombinant protein complex CDK2/Cyclin E2, expressed from insect cell, was purchased from ProQinase. Testing compounds were dissolved in DMSO at 1 mM and tested in 9-dose IC50 mode. The reaction mixture was prepared by mixing CDK2/CyclinE2 (1 nM final), ULight-4E-BP1 (50 nM final, Perkinelmer, TRF0128-D), and ATP (1 mM final) in assay buffer (20 mM of HEPES pH 7.4, 1 mM of EGTA, 0.05% BSA, 0.005% Tween 20, and 1 mM TCEP). The compound of interest in DMSO was added to each well in 3-fold serial dilution by dispenser (TECAN D300E) to make a 9.9 μL of reaction mixture. After 20 minutes preincubation at room temperature, 0.1 μL MgCl2 (10 mM final) was added to initiate the reaction. Following a 45 minute incubation at 37° C., the reaction was stopped by addition of 2 μL of quenching buffer consisting of Lance detection buffer (Perkinelmer CR97-100C), LANCE Ultra Europium-anti-P-4E-BP1 (Perkinelmer, TRF0216-D), EDTA, and incubate at room temperature for an additional 60 minutes in the dark. The reaction signal was measured by Envision multimode plate reader (PerkinElmer, 2102-0010). IC50 values were determined by fitting the data to the standard 4 parameters with Hill Slope using GraphPad Prism software.

[2] = biological target: T1, CDK4/Cyclin D1 (Homo sapiens, UniProt P11802); test: CDK4/CyclinD1 enzymatic activity assay (TR-FRET); format: biochemical; conditions: ATP 2 mM final, read-out: CDK4_D1 IC50
T1 construct: purchased ProQinase; host or cells: insect cell
Description: CDK4/CyclinD1 Enzymatic Activity Assay
as §1, with “Bio-One). CDK4/Cyclin D1” for “Bio-One). CDK2/Cyclin E2”, “in IC5” for “in IC50”, “complex CDK4/Cyclin D1,” for “complex CDK2/Cyclin E2,”, “mixing CDK4/CyclinD1” for “mixing CDK2/CyclinE2”, “ULight-4E-BP1 (100” for “ULight-4E-BP1 (50”, “ATP (2” for “ATP (1”

[3] = system: OVCAR3 p-RB; test: pRB ICW assay in OVCAR3 cells; format: cell-based; conditions: Homo sapiens, OVCAR-3, incubated with compound for 2 hours
Description: pRB ICW Assay in OVCAR3 Cells
OVCAR3 cells were maintained in RPMI (Corning, Catalog #: 10-040-CV) supplemented with 10% v/v FBS (Gibco, Catalog #: 26140-079), 1% v/v Penicillin Streptomycin (Gibco, Catalog #15140-122.) OVCAR3 cells grown at log phase were trypsinized, counted, and resuspended in fresh medium to reach a final density of 6.7e4 cells/mL and 75 μL of culture were dispensed into a 384-well plate (Falcon, cat #353962) using Multidrop Combi dispenser (Thermo Scientific). The next day, compounds were dispensed as a 9-point, ½ log serial dilution using a Tecan digital dispenser (D300e), and cells were incubated with compound for 2 hours in a humidified incubator at 37° C. A reference compound at a final concentration of 10 μM was used as a control for maximum inhibition. Each compound was tested in duplicates in each experiment. At the end of the incubation, 25 μL of 16% paraformaldehyde (Electron Microscopy, cat #15710) was slowly added to each well and the plate was incubated at room temperature (RT) for 30 minutes to fix cells. Cells were then permeabilized by incubating with 50 μL/well of wash buffer (lx PBS with 0.1% Triton X-100) 5×5 minutes, followed by 1 hour blocking with 30 μL/well of Odyssey blocking buffer (Li-COR, cat #927-40000), all at RT. Anti-phosphor RB antibody (Cell signaling 8516S) was diluted 1:1000 in Odyssey blocking buffer and 20 μL was added to all wells and incubated overnight in 4° C. with gently rocking. The next day, cells were washed 5×5 min with 50 μL/well of wash buffer, followed with 1 hour incubation with secondary antibody and DRAQ5 diluted in Odyssey blocking buffer (1:500 dilution for secondary antibody and 1:2000 dilution for DRAQ5), 5×5 min washes, and one last wash with water. Plates were dried in 37° C. oven for 5 min and scanned using Li-COR Odyssey CLx imaging system to acquire intensities at 700 and 800 nm channels.

T1 sequence (P11802 whole entry): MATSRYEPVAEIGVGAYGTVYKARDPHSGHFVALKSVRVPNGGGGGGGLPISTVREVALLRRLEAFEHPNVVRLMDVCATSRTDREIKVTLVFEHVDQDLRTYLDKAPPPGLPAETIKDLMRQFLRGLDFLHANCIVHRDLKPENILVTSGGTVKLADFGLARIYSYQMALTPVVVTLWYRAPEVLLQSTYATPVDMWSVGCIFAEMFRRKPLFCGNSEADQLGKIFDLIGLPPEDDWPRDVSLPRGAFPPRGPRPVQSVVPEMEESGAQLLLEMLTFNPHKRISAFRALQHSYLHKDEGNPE
T1 sequence (P24385 whole entry partner): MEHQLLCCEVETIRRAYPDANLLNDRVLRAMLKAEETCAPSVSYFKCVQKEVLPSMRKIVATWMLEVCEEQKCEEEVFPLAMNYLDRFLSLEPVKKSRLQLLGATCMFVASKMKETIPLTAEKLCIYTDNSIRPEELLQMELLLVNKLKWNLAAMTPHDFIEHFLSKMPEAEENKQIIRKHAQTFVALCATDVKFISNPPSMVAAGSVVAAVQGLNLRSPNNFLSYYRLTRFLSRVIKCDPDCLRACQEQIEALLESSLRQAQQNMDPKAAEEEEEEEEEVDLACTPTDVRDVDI

IC50 [1]	IC50 [2]	IC50 [3]	Compound
≤ 100 nM	100 to 1000 nM	100 to 1000 nM	CC(=O)Nc1ncc(-c2nc(NC3CCN(S(C)(=O)=O)CC3)ncc2C(F)(F)F)s1 [Example 21, N-(5-(2-((1-(methylsulfonyl)piperidin-4-yl)amino)-5-(trifluoromethyl)pyrimidin-4-yl)thiazol-2-yl)acetamide]
≤ 100 nM	≤ 100 nM	100 to 1000 nM	Cc1cc(CO)ccc1-c1ncc(-c2nc(NC3CCN(S(C)(=O)=O)CC3)ncc2C(F)(F)F)s1 [Example 12, [3-methyl-4-[5-[2-[(1-methylsulfonylpiperidin-4-yl)amino]-5-(trifluoromethyl)pyrimidin-4-yl]-1,3-thiazol-2-yl]phenyl]methanol]
≤ 100 nM	≤ 100 nM	≤ 100 nM	Cn1cc(S(=O)(=O)N2CCC(Nc3ncc(C(F)(F)F)c(-c4cnc(C5(O)CCCC5)s4)n3)CC2)cn1 [Example 95, 1-(5-(2-((1-((1-methyl-1H-pyrazol-4-yl)sulfonyl)piperidin-4-yl)amino)-5-(trifluoromethyl)pyrimidin-4-yl)thiazol-2-yl)cyclopentan-1-ol]
≤ 100 nM	≤ 100 nM	> 1000 nM	Cc1nc(CO)ccc1-c1ncc(-c2nc(NC3CCN(S(C)(=O)=O)CC3)ncc2C(F)(F)F)s1 [Example 10, [6-Methyl-5-[5-[2-[(1-methylsulfonylpiperidin-4-yl)amino]-5-(trifluoromethyl)pyrimidin-4-yl]-1,3-thiazol-2-yl]pyridin-2-yl]methanol]
≤ 100 nM	≤ 100 nM	100 to 1000 nM	CS(=O)(=O)N1CCC(Nc2ncc(C(F)(F)F)c(-c3cnc(N)s3)n2)CC1 [Example 20, 5-(2-((1-(methylsulfonyl)piperidin-4-yl)amino)-5-(trifluoromethyl)pyrimidin-4-yl)thiazol-2-amine]
≤ 100 nM	≤ 100 nM	100 to 1000 nM	CCOc1ncc(-c2nc(NC3CCN(S(C)(=O)=O)CC3)ncc2C(F)(F)F)s1 [Example 52, 4-(2-Ethoxy-1,3-thiazol-5-yl)-N-(1-methylsulfonylpiperidin-4-yl)-5-(trifluoromethyl)pyrimidin-2-amine]
≤ 100 nM	100 to 1000 nM	100 to 1000 nM	C[C@@H]1CN(S(=O)(=O)c2cnn(C)c2)CC[C@@H]1Nc1ncc(C(F)(F)F)c(-c2cnc(CC(C)(C)O)s2)n1 [Example 71, 2-methyl-1-(5-(2-(((3R,4S)-3-methyl-1-((1-methyl-1H-pyrazol-4-yl)sulfonyl)piperidin-4-yl)amino)-5-(trifluoromethyl)pyrimidin-4-yl)thiazol-2-yl)propan-2-ol]
≤ 100 nM	100 to 1000 nM	≤ 100 nM	C[C@@H]1CN(S(=O)(=O)c2cn(C)cn2)CC[C@@H]1Nc1ncc(C(F)(F)F)c(-c2cnc(C(C)(C)O)s2)n1 [Example 96, 2-(5-(2-(((3R,4S)-3-methyl-1-((1-methyl-1H-imidazol-4-yl)sulfonyl)piperidin-4-yl)amino)-5-(trifluoromethyl)pyrimidin-4-yl)thiazol-2-yl)propan-2-ol]
≤ 100 nM	100 to 1000 nM	> 1000 nM	CS(=O)(=O)N1CCC(Nc2ncc(C(F)(F)F)c(-c3cnc(CO)s3)n2)CC1 [Example 24, [5-[2-[(1-methylsulfonylpiperidin-4-yl)amino]-5-(trifluoromethyl)pyrimidin-4-yl]-1,3-thiazol-2-yl]methanol]
≤ 100 nM	≤ 100 nM	100 to 1000 nM	CC(C)Nc1ncc(-c2nc(NC3CCN(S(C)(=O)=O)CC3)ncc2C(F)(F)F)s1 [Example 41, 5-[2-[(1-Methylsulfonylpiperidin-4-yl)amino]-5-(trifluoromethyl)pyrimidin-4-yl]-N-propan-2-yl-1,3-thiazol-2-amine]
≤ 100 nM	≤ 100 nM	≤ 100 nM	Cn1cc(S(=O)(=O)N2CCC(Nc3ncc(C(F)(F)F)c(-c4cnc(C(O)C5CC5)s4)n3)CC2)cn1 (stereo not drawn) [Example 84, cyclopropyl(5-(2-((1-((1-methyl-1H-pyrazol-4-yl)sulfonyl)piperidin-4-yl)amino)-5-(trifluoromethyl)pyrimidin-4-yl)thiazol-2-yl)methanol]
≤ 100 nM	≤ 100 nM	> 1000 nM	CS(=O)(=O)N1CCC(Nc2ncc(C(F)(F)F)c(-c3cnc(C4=CCCC4)s3)n2)CC1 [Example 4, 4-[2-(Cyclopenten-1-yl)-1,3-thiazol-5-yl]-N-(1-methylsulfonylpiperidin-4-yl)-5-(trifluoromethyl)pyrimidin-2-amine]
≤ 100 nM	≤ 100 nM	100 to 1000 nM	CS(=O)(=O)N1CCC(Nc2ncc(C(F)(F)F)c(-c3cnc(N4CCCC4)s3)n2)CC1 [Example 1, N-(1-Methylsulfonylpiperidin-4-yl)-4-(2-pyrrolidin-1-yl-1,3-thiazol-5-yl)-5-(trifluoromethyl)pyrimidin-2-amine]
≤ 100 nM	≤ 100 nM	100 to 1000 nM	CN1CCN(CCCS(=O)(=O)N2CCC(Nc3ncc(C(F)(F)F)c(-c4cnc(CC(C)(C)O)s4)n3)CC2)CC1 [Example 80, 2-methyl-1-(5-(2-((1-((3-(4-methylpiperazin-1-yl)propyl)sulfonyl)piperidin-4-yl)amino)-5-(trifluoromethyl)pyrimidin-4-yl)thiazol-2-yl)propan-2-ol]
≤ 100 nM	≤ 100 nM	100 to 1000 nM	CS(=O)(=O)N1CCC(Nc2ncc(C(F)(F)F)c(-c3cnc(O[C@@H]4CCC[C@H]4O)s3)n2)CC1 [Example 44, (1R,2R)-2-((5-(2-((1-(Methylsulfonyl)piperidin-4-yl)amino)-5-(trifluoromethyl)pyrimidin-4-yl)thiazol-2-yl)oxy)cyclopentanol]
≤ 100 nM	100 to 1000 nM	100 to 1000 nM	Cc1ncc(-c2nc(NC3CCN(S(=O)(=O)C4CC4)CC3)ncc2C(F)(F)F)s1 [Example 46, N-(1-(Cyclopropylsulfonyl)piperidin-4-yl)-4-(2-methylthiazol-5-yl)-5-(trifluoromethyl)pyrimidin-2-amine]

Compound	IC50 [1]	IC50 [2]	IC50 [3]
CC(O)c1ncc(-c2nc(NC3CCN(S(=O)(=O)c4cn(C)cn4)CC3)ncc2C(F)(F)F)s1 (stereo not drawn) [Example 83, 1-(5-(2-((1-((1-methyl-1H-imidazol-4-yl)sulfonyl)piperidin-4-yl)amino)-5-(trifluoromethyl)pyrimidin-4-yl)thiazol-2-yl)ethan-1-ol]	≤ 100 nM	≤ 100 nM	≤ 100 nM
